Data taken from patent publication US20230330093A1, “APPLICATION OF NITROGEN-CONTAINING SATURATED HETEROCYCLIC COMPOUND” (SHANGHAI PHARMACEUTICALS HOLDING CO., LTD., priority 2020, published 2023).
Several values for one entry are separate records, joined by “and”; a condition that tells them apart may be missing. Identical values can stand only once.

System: rhesus monkeys with spontaneous chronic kidney disease
Assay: Effect on serum K+, 8-week administration
Conditions: 5mg/kg (n = 6)
Protocol: In the trial, animals were brought in three stages. In the first stage, there were two groups: 3 animals (No. 257, No. 4721, No. 287) in a group with 5 mg/kg of the malate of compound of formula I, and 2 animals (No. 1029, No. 4713) in the placebo group. […] In the third stage, there were two groups: 5 animals (No. 4829, No. 6501, No. 287, No. 4721, No. 2091) in a group with 2 mg/kg of the malate of compound of formula I, and 5 animals (No. 1567, No. 4861, No. 5453, No. 6653, No. 5073) in a group with 1 mg/kg of the malate of compound of formula I.
Serum potassium, twice before administration, once every 2 weeks during the administration period;
Blood biochemical and urine index detection equipment: Roche cobas6000 analyzer series C501 module detection. ELISA kit was used for NT-proBNP test.

Structure (SMILES): COC(=O)NCCCn1nc(C(C)N(C(=O)C2CNCCO2)C2CC2)c2ccc(C)nc21.O=C(O)CC(O)C(=O)O (stereo not drawn) [malate of compound of Formula 1]
- K^+ (2 weeks, Mean ± SD): 4.98 ± 0.73 mmol/L
- K^+ (2 weeks, individual animals): 4.91 mmol/L and 4.55 mmol/L and 6.07 mmol/L and 5.37 mmol/L and 5.05 mmol/L and 3.93 mmol/L
- K^+ (4 weeks, Mean ± SD): 4.49 ± 0.62 mmol/L
- K^+ (4 weeks, individual animals): 4.33 mmol/L and 4.55 mmol/L and 5.46 mmol/L and 4.50 mmol/L and 4.61 mmol/L and 3.51 mmol/L
- K^+ (6 weeks, Mean ± SD): 4.57 ± 0.66 mmol/L
- K^+ (6 weeks, individual animals): 4.53 mmol/L and 4.16 mmol/L and 4.77 mmol/L and 4.76 mmol/L and 5.58 mmol/L and 3.60 mmol/L
- K^+ (8 weeks, Mean ± SD): 4.49 ± 0.70 mmol/L
- K^+ (8 weeks, individual animals): 4.26 mmol/L and 4.64 mmol/L and 4.49 mmol/L and 5.28 mmol/L and 5.00 mmol/L and 3.26 mmol/L
- K^+ (Baseline 1, Mean ± SD): 4.89 ± 0.35 mmol/L
- K^+ (Baseline 1, individual animals): 4.78 mmol/L and 4.54 mmol/L and 4.93 mmol/L and 5.41 mmol/L and 5.16 mmol/L and 4.52 mmol/L
- K^+ (Baseline 2, Mean ± SD): 4.81 ± 0.48 mmol/L
- K^+ (Baseline 2, individual animals): 5.43 mmol/L and 4.74 mmol/L and 4.03 mmol/L and 5.20 mmol/L and 4.75 mmol/L and 4.72 mmol/L
